From US6455540B1, “Methods of use of quinolone compounds against anaerobic pathogenic bacteria” (priority 1999, dated 2002)
Converted amounts (≈) assume the structure as drawn.

Experiments:
[1] = system: Fusobacterium spp. group 2; assay: Agar dilution MIC; assay type: cell-based, Fusobacterium mortiferum, necrogenes, ulcerans; settings: Fusobacterium
[2] = system: Peptostreptococcus asaccharolyticus; assay: Agar dilution MIC; assay type: cell-based
Porphyromonas spp. = assay: Agar dilution MIC; assay type: cell-based, Porphyromonas cangingivalis, cansulci, circumdentaria, levii
Fusobacterium naviforme = assay: Agar dilution MIC; assay type: cell-based; settings: read-out: concentration to which strains were susceptible (MIC)
[3] = system: Peptostreptococcus prevotii; assay: Agar dilution MIC; assay type: cell-based
Bilophila wadsworthia = assay: Agar dilution MIC; assay type: cell-based
B. thetaiotaomicron = settings: Goldstein, et al.; cited from earlier work
Clostridium dfficile = assay: Agar dilution MIC; assay type: cell-based, Clostridium difficile
Fusobacterium varium = assay: Agar dilution MIC; assay type: cell-based
[4] = system: Anaerobiospirillum succiniciproducens; assay: Agar dilution MIC; assay type: cell-based
[5] = system: Clostridium clostridioforme; assay: Agar dilution MIC; assay type: cell-based
F. necrophorum = assay: Agar dilution MIC; assay type: cell-based; settings: Fusobacterium necrophorum; read-out: concentration to which strains were susceptible (MIC)
[6] = system: Prevotella buccae-oris group; assay: Agar dilution MIC; assay type: cell-based
[7] = system: Porphyromonas asaccharolyticus; assay: Agar dilution MIC; assay type: cell-based, Porphyromonas asaccharolytica
Clostridium inocuum = assay: Agar dilution MIC; assay type: cell-based, Clostridium innocuum
Fusobacterium russii = assay: Agar dilution MIC; assay type: cell-based
Bacteroides gracilis = assay: Agar dilution MIC; assay type: cell-based, Bacteroides gracilis (Campylobacter gracilis)
[8] = system: Prevotella melaninogenica; assay: Agar dilution MIC; assay type: cell-based
[9] = system: Fusobacterium spp group 1; assay: Agar dilution MIC; assay type: cell-based
[10] = Porphyromonas, read-out: Minimal Inhibitory Concentration 50% (MIC50)
[11] = Porphyromonas, 11 isolates, read-out: Minimal Inhibitory Concentration 90% (MIC90)
[12] = Clostridium, read-out: Minimal Inhibitory Concentration 50% (MIC50)
[13] = Clostridium, 11 isolates, read-out: Minimal Inhibitory Concentration 90% (MIC90)

CO/N=C1\CN(c2nc3c(cc2F)c(=O)c(C(=O)O)cn3C2CC2)CC1CN (racemic) [Gemifloxacin, (R,S)-7-(3-aminomethyl-4-methoxyiminopyrrolidin-1-yl)-1-cyclopropyl-6-fluoro-4-oxo-1,4-dihydro-1,8-naphthyridine-3-carboxylic acid]
MIC50 ([1]; read-out: Minimal Inhibitory Concentration 50% (MIC50)): 4 µg/mL (≈ 10.3 µM) | MIC90 ([1]; 12 isolates, read-out: Minimal Inhibitory Concentration 90% (MIC90)): 4 µg/mL (≈ 10.3 µM) | Minimal Inhibitory Concentration Range ([2]; 11 isolates): 0.125 to 0.25 µg/mL | MIC50 ([2]; Peptoniphilus asaccharolyticus, read-out: Minimal Inhibitory Concentration 50% (MIC50)): 0.25 µg/mL (≈ 0.642 µM) | MIC90 ([2]; Peptoniphilus asaccharolyticus, 11 isolates, read-out: Minimal Inhibitory Concentration 90% (MIC90)): 0.25 µg/mL (≈ 0.642 µM) | Minimal Inhibitory Concentration Range (Porphyromonas spp.; 11 isolates): 0.06 to 0.125 µg/mL | MIC50 (Porphyromonas spp.; [10]): 0.06 µg/mL (≈ 0.154 µM) | MIC90 (Porphyromonas spp.; [11]): 0.125 µg/mL (≈ 0.321 µM) | MIC (Fusobacterium naviforme): ≤ 2 µg/mL | Minimal Inhibitory Concentration Range ([3]; 9 isolates): 0.06 to 0.25 µg/mL | MIC50 ([3]; Anaerococcus prevotii, read-out: Minimal Inhibitory Concentration 50% (MIC50)): 0.125 µg/mL (≈ 0.321 µM) | Minimal Inhibitory Concentration 90% (MIC90) (Bilophila wadsworthia; 16 isolates, agar supplemented with pyruvate): 4 µg/mL | MIC90 (Bilophila wadsworthia; Bilophila wadsworthia, 16 isolates, agar supplemented with pyruvate, read-out: Minimal Inhibitory Concentration 90% (MIC90)): ≥ 4 µg/mL | MIC50 (Bilophila wadsworthia; Bilophila wadsworthia, read-out: Minimal Inhibitory Concentration 50% (MIC50)): 0.25 µg/mL (≈ 0.642 µM) | activity (B. thetaiotaomicron): only limited activity | susceptibility to gemifloxacin (Clostridium dfficile): often resistant | Minimal Inhibitory Concentration 90% (MIC90) (Clostridium dfficile; 14 isolates): >8 µg/mL | MIC50 (Clostridium dfficile; [12]): 2 µg/mL (≈ 5.14 µM) | MIC90 (Clostridium dfficile; Clostridium, read-out: Minimal Inhibitory Concentration 90% (MIC90), 14 isolates): ≥ 4 µg/mL | susceptibility pattern of strains (Fusobacterium varium): bimodal pattern | MIC50 (Fusobacterium varium; Fusobacterium varium, read-out: Minimal Inhibitory Concentration 50% (MIC50)): > 8 µg/mL | MIC90 (Fusobacterium varium; Fusobacterium varium, 17 isolates, read-out: Minimal Inhibitory Concentration 90% (MIC90)): > 8 µg/mL | Minimal Inhibitory Concentration Range ([4]; 3 isolates): 0.5 to 2 µg/mL | MIC50 ([4]; Anaerobiospirillum succiniciproducens, read-out: Minimal Inhibitory Concentration 50% (MIC50)): 1 µg/mL (≈ 2.57 µM) | susceptibility to gemifloxacin [5]: relatively susceptible | Minimal Inhibitory Concentration 90% (MIC90) ([5]; 11 isolates): 1 µg/mL | MIC90 [5, 13]: ≤ 2 µg/mL | MIC50 [5, 12]: 0.5 µg/mL (≈ 1.28 µM) | MIC (F. necrophorum): ≤ 2 µg/mL | Minimal Inhibitory Concentration 90% (MIC90) ([6]; 22 isolates): 2 µg/mL | Minimal Inhibitory Concentration Range ([6]; 22 isolates): 0.5 to 8 µg/mL | MIC90 ([6]; Prevotella, 22 isolates, read-out: Minimal Inhibitory Concentration 90% (MIC90)): ≤ 2 µg/mL | MIC50 ([6]; Prevotella, read-out: Minimal Inhibitory Concentration 50% (MIC50)): 2 µg/mL (≈ 5.14 µM) | Minimal Inhibitory Concentration Range ([7]; 11 isolates): 0.06 to 0.125 µg/mL | MIC50 [7, 10]: 0.06 µg/mL (≈ 0.154 µM) | MIC90 [7, 11]: 0.125 µg/mL (≈ 0.321 µM) | susceptibility to gemifloxacin (Clostridium inocuum): relatively susceptible | Minimal Inhibitory Concentration 90% (MIC90) (Clostridium inocuum; 11 isolates): 2 µg/mL | MIC90 (Clostridium inocuum; [13]): ≤ 2 µg/mL | MIC50 (Clostridium inocuum; [12]): 0.25 µg/mL (≈ 0.642 µM) | Minimal Inhibitory Concentration 90% (MIC90) (Fusobacterium russii): >8 µg/mL | MIC50 (Fusobacterium russii; Fusobacterium russii, read-out: Minimal Inhibitory Concentration 50% (MIC50)): > 8 µg/mL | MIC90 (Fusobacterium russii; Fusobacterium russii, read-out: Minimal Inhibitory Concentration 90% (MIC90)): ≥ 4 µg/mL | Minimal Inhibitory Concentration 90% (MIC90) (Bacteroides gracilis; 11 isolates): 1 µg/mL | MIC90 (Bacteroides gracilis; Campylobacter gracilis, 11 isolates, read-out: Minimal Inhibitory Concentration 90% (MIC90)): ≤ 2 µg/mL | MIC50 (Bacteroides gracilis; Campylobacter gracilis, read-out: Minimal Inhibitory Concentration 50% (MIC50)): ≤ 0.015 µg/mL | Minimal Inhibitory Concentration 90% (MIC90) ([8]; 12 isolates): 8 µg/mL | MIC90 ([8]; Prevotella melaninogenica, 12 isolates, read-out: Minimal Inhibitory Concentration 90% (MIC90)): ≥ 4 µg/mL | MIC50 ([8]; Prevotella melaninogenica, read-out: Minimal Inhibitory Concentration 50% (MIC50)): 1 µg/mL (≈ 2.57 µM) | Minimal Inhibitory Concentration Range ([9]; 19 isolates): 0.06 to 8 µg/mL | MIC50 ([9]; Fusobacterium, GROUP1, read-out: Minimal Inhibitory Concentration 50% (MIC50)): 0.25 µg/mL (≈ 0.642 µM) | MIC90 ([9]; Fusobacterium, GROUP1, 19 isolates, read-out: Minimal Inhibitory Concentration 90% (MIC90)): 8 µg/mL (≈ 20.5 µM)
